According to US20220370636A1, “NICOTINAMIDE ADENINE DINUCLEOTIDE ACTIVATOR AND USE THEREOF” (University of South Florida, priority 2021, published 2022):

Assays:
db/db mice [1] = experiment: Luminex Magpix IP-10 immunoassay of serum; type: in vivo; conditions: vs db-Veh
Procedure: Luminex Magpix IP-10 (C—X—C motif chemokine ligand 10) immunoassay. The serum inflammatory markers were analysed using a mouse cytokine/chemokine antibody-immobilized premixed 32-plex Luminex magnetic beads based 96-Well plate immunoassay kit (Milliplex Map kit—MCYTMAG-70K-PX32, EMD Millipore Corporation, MA, USA) according to the manufacturer's instruction. Briefly, the serum samples were diluted at 1:2 in the assay buffer and measured in duplicates along with the standards and quality controls. The serum samples were incubated overnight at 4° C. with the magnetic beads. The wells were then washed with wash buffer and incubated with the detection antibodies for 1 h at RT, followed by a streptavidin-phycoerythrin incubation for 30 min at RT. After washing, the plate was run on MAGPIX with xPONENT software. The mean fluorescent intensity data was analysed using a five-parameter logistic curve-fitting Multi Analyst software for calculating the cytokine/chemokine concentrations of the samples (n=6 mice per group).

Nampt = target: T1, Nampt (Mus musculus, UniProt Q99KQ4); experiment: Gastrocnemius muscle Nampt enzymatic activity in db/db mice; type: in vivo; conditions: 4 weeks, vs db-Veh
T1 construct: from tissue; host or cells: whole heart homogenate of db/db mice
Source text: Nampt enzymatic activity.

db/db mice [2] = experiment: Electrocardiography in db/db mice; type: in vivo; conditions: 10 mg/kg/day i.p., 4 weeks, vs vehicle
Procedure: Electrocardiography (ECG). Mouse ECG recordings were obtained utilizing 2-3% isoflurane/oxygen anesthesia in lead II configuration. ECGs were acquired for a total duration of 15 min, with 1 min recordings obtained at 5-minute intervals. Heart rate was monitored, while ECG traces were acquired using PowerLab system operated with LabChart 7.2 software (AD Instruments, UK). Data were analyzed offline using the ECG module of LabChart 7.2 software, as reported elsewhere. The intervals (ms) of QTc, JT, and ST elevation (mV) were measured. QT interval was measured from the start of the Q peak to the point where the T wave returns to the isoelectric baseline (TP baseline), and heart rate corrected QT (QTc) interval was obtained using the formula (QTc=QT/(RR/100)^1/2).

db/db hearts = experiment: Ex vivo ischemia reperfusion (Langendorff) in db/db hearts; set-up: species or system mice
Procedure: Ex vivo ischemia reperfusion protocol. Mice were injected with heparin (360 USP units, Sigma-Aldrich, MO, USA) and euthanized with Somnasol™ (pentobarbital, 50 mg/kg i.p. body weight). Hearts were then excised and mounted on to the Langendorff apparatus immediately and perfused with Krebs-Hanseleit buffer containing (in mM): 119 NaCl, 25 NaHCO3, 4 KCl, 1 MgCl2, 1.8 CaCl2), 1 MgCl2, 10 glucose and 2 Sodium pyruvate, pH 7.4, that was constantly bubbled with carbogen gas and maintained at 37° C. as described previously. Perfusion was maintained at a constant flow of ˜2.2 ml/min. Hearts were stabilized for 30 min before proceeding to the ischemic phase. Hearts that underwent P7C3 (3 μM) treatment during the Langendorff procedure were allowed to stabilize for 10 mins then a 20 min perfusion with P7C3 (3 μM) (within Krebs-Hanseleit buffer) as pre-ischemic dosing. Cardiac ischemia was induced by the pause in Krebs-Hanseleit buffer perfusion for 45 min. Reperfusion was induced with the induction of Krebs-Hanseleit buffer at a constant flow of ˜2.2 ml/min for 2 hours. […] Image J software was utilized to quantify the ischemic areas for several sections per heart, which were then averaged and divided by the total area of the heart section and multiplied by a factor of ×100(%) to determine the overall damage percentage per heart. […]

C57Bl/6J wildtype hearts = experiment: Ex vivo ischemia reperfusion (Langendorff) in wildtype hearts; set-up: species or system mice
Procedure: Ex vivo ischemia reperfusion protocol. Mice were injected with heparin (360 USP units, Sigma-Aldrich, MO, USA) and euthanized with Somnasol™ (pentobarbital, 50 mg/kg i.p. body weight). Hearts were then excised and mounted on to the Langendorff apparatus immediately and perfused with Krebs-Hanseleit buffer containing (in mM): 119 NaCl, 25 NaHCO3, 4 KCl, 1 MgCl2, 1.8 CaCl2), 1 MgCl2, 10 glucose and 2 Sodium pyruvate, pH 7.4, that was constantly bubbled with carbogen gas and maintained at 37° C. as described previously. Perfusion was maintained at a constant flow of ˜2.2 ml/min. Hearts were stabilized for 30 min before proceeding to the ischemic phase. Hearts that underwent P7C3 (3 μM) treatment during the Langendorff procedure were allowed to stabilize for 10 mins then a 20 min perfusion with P7C3 (3 μM) (within Krebs-Hanseleit buffer) as pre-ischemic dosing. Cardiac ischemia was induced by the pause in Krebs-Hanseleit buffer perfusion for 45 min. Reperfusion was induced with the induction of Krebs-Hanseleit buffer at a constant flow of ˜2.2 ml/min for 2 hours. Hearts that underwent P7C3 (3 μM) treatment received 2-hour reperfusion with P7C3 within the Krebs-Hanseleit buffer. Hearts were then removed from the Langendorff apparatus and immediately placed in −20° C. freezer for 30 minutes. Hearts were then placed on a sectioning block and sliced into ([…]) slices. Heart sections were subjected to 2,3,5-Triphenyltetrazolium chloride (TTC) staining for 30 minutes. Hearts were then imaged and scanned for ischemic damage assessment. Image J software was utilized to quantify the ischemic areas for several sections per heart, which were then averaged and divided by the total area of the heart section and multiplied by a factor of ×100(%) to determine the overall damage percentage per heart.
Lactate Dehydrogenase activity. […]. The absorbance intensity was measured at 450 nm.
Troponin I activity. […].
Western blotting. For studies aimed to assess the insulin stimulated AKT phosphorylation, following four-week P7C3 treatment, mice were injected with Novolin R human insulin (1 Unit/kg body weight, i.p.), and hearts were collected after 5 minutes for Western blot analysis. Protein lysates for Western blotting were prepared from mouse hearts as described previously. Equivalent amounts of protein were loaded and resolved using 12% precast polyacrylamide gels (BioRad, CA, USA). Successful transfer of proteins was detected using Ponceau S (Sigma-Aldrich, MO, USA), and blots were probed with mouse monoclonal primary antibody for phospho AKT^ser473 (p-AKT), total AKT (t-AKT), phospho eNOS^ser1177 (p-eNOS), total eNOS (t-eNOS), Beclin1, and GAPDH (Cell signaling, MA, USA). HRP conjugated Rabbit anti-mouse antibody (Millipore) was used as a secondary antibody. Target protein band densities were quantified using Image J software.

db/db mice [3] = experiment: Fasting blood glucose, ITT, GTT and insulin in db/db mice
Procedure: Mice were fasted 6 h, and tail vein blood was used for glucose measurement with ACCU-CHECK blood glucose meter (Roche Diagnostics, Mannheim, Germany) on a weekly basis for 4 weeks.
Insulin tolerance test. […] After 4 weeks of treatment, both the db-Veh and db-P7C3 treated mice were fasted overnight for GTT assay. GTT was performed by a single dose of intraperitoneal injection of 2 g/kg body weight of D-(+)-glucose (Sigma-Aldrich, MO, USA). Blood samples were obtained by the retro orbital plexus technique. Serum glucose levels were determined prior to glucose administration (0 min) and after 30, 60, 90, and 120 min of glucose injection, using glucose oxidase peroxidase kit (Pointe Scientific Inc., MI. USA) and following manufacturer's instructions. […] The index of the total glucose shift was calculated as the area under the curve (AUC) using trapezium method.

[4] = WT hearts perfused with P7C3 3 μM
[5] = WT hearts, following I/R injury, vs control hearts

T1 sequence (Q99KQ4 whole entry): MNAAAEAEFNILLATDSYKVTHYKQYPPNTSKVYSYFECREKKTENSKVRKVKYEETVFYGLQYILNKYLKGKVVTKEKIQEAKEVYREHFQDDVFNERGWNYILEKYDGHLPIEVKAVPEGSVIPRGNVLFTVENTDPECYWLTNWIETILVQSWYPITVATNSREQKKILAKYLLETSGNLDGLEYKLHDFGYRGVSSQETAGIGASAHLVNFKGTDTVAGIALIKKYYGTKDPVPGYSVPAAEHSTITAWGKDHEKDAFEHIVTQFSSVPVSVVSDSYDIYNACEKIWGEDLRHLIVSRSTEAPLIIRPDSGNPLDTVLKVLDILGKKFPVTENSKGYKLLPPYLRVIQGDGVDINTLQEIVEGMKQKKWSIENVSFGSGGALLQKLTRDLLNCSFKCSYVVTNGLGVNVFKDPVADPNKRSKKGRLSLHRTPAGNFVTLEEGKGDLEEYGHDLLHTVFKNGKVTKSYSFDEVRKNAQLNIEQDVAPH

OC(CNc1ccccc1)Cn1c2ccc(Br)cc2c2cc(Br)ccc21 (stereo not shown) [P7C3, 3,6-Dibromo-a-[(phenylamino)methyl]-9H-carbazole-9-ethanol]
serum IP-10 levels (db/db mice [1]): significant decrease
Nampt activity in gastrocnemius muscle (Nampt): significant increase
JT interval (db/db mice [2]): significantly attenuated
QTc interval (db/db mice [2]): significantly attenuated
ST elevation (db/db mice [2]): significantly attenuated
cardiac effluent Troponin I levels (db/db hearts; 30 and 120 minutes post-ischemia): significant decrease
infarct size (db/db hearts; P7C3 3 μM prior to and following (2 hour reperfusion) ischemia): 18%
increase in NAD+/NADH levels (C57Bl/6J wildtype hearts; [4]): 3 fold
increase in cardiac Nampt activity (C57Bl/6J wildtype hearts; [4]): 1.7 fold
ischemic injury (infarct) (C57Bl/6J wildtype hearts; WT hearts, P7C3 3 μM pre- and post-exposure): 8%
p-AKT/t-AKT levels post I/R injury (C57Bl/6J wildtype hearts; WT hearts, P7C3 3 μM, vs vehicle control hearts): significant increase
coronary effluent LDH activity (C57Bl/6J wildtype hearts; [5]): significantly reduced
coronary effluent Troponin I (C57Bl/6J wildtype hearts; [5]): significantly reduced
fasting blood glucose levels (db/db mice [3]; 10 mg/kg/day i.p., 4 weeks, 6 h fasting, vs vehicle): significant decrease
circulating blood glucose levels in response to the ITT (db/db mice [3]; 10 mg/kg/day i.p., 4 weeks, vs db-Veh): significantly reduced
HOMA-IR (db/db mice [3]; 4 weeks, vs db-Veh): decreased
circulating insulin levels (db/db mice [3]; 4 weeks, vs db-Veh): increased
β cells function (HOMA-B) (db/db mice [3]; 4 weeks, vs db-Veh): increased
GTT percent AUC (db/db mice [3]; trapezium method, vs db-Veh): significant decrease
